The text below walks through data of patent US11752196B2, “Treatment of pyroptosis” (priority 2018, dated 2023).

Each structure is given as a SMILES string.

In this experiment the test system is GSDMD cleavage in Huh7 hepatocytes. The experiment can be described thus: LPS-induced pyroptosis (GSDMD cleavage) in Huh7 hepatocytes pre-treated with tunicamycin and/or very low-dose LPS. It counts as cell-based, Human. The conditions noted are these: tunicamycin and/or LPS 1 μg/ml for 24 hours, then LPS 30 μg/ml. On the procedure:
FIG. 13—LPS-dependent pyroptosis in hepatocytes and priming by ER stress.
All measurements were performed in triplicate.
In addition to hepatocyte ER stress, increased levels of circulating endotoxin are detected in advanced liver disease. Therefore, to determine the importance of hepatocyte ER stress and low-level endotoxin exposure as mediators of upregulation of the caspase-4/11 pathway, Huh7 hepatocytes were pre-treated with the ER stress inducer, tunicamycin and/or very low-dose LPS (1 μg/ml) for 24 hours, prior to the LPS ‘hit’ (30 μg/ml) (FIG. 13). […] Importantly, in these experiments hepatocyte pyroptosis was independent of the TLR4 pathway, as GSDMD cleavage was not inhibited by the TLR4 antagonist TAK-242. Caspase-11 deficient mice are protected from hepatic and extra-hepatic organ injury in ACLF Casp11^−/− mice are deficient in the caspase-11 pathway, but the caspase-1 pathway remains intact. Casp11^−/− mice develop a similar level of advanced fibrosis/cirrhosis compared to wildtype (wt) after treatment with 20 doses of CCl4 (FIG. 14A).

`CCOC(=O)C1=CCCC[C@H]1S(=O)(=O)Nc1ccc(F)cc1Cl` [TAK-242]: the “GSDMD cleavage (inhibition by TLR4 antagonist)” value is given as “not inhibited”.
